Results on five molecules are retold here after paper PMC9964718, “Diterpenoids from Euphorbia gedrosiaca as Potential Anti-Proliferative Agents against Breast Cancer Cells” (Metabolites, 2023).

In general, IC50 refers to the concentration needed to halve the response being measured.

On the set-up of data set [1]: method as in PMID 30707022. Particulars: compound isolated from roots of Euphorbia prolifera; cited from earlier work.
A short description of data set [2]: MTT viability assay, L929 normal fibroblast cell line. The data set is classed as cell-based. Particulars: L929 normal fibroblast cells (NCTC clone 929), L929 (normal) mouse fibroblast, 24 h incubation, mean ± SD (n = 3), read-out: Cytotoxic activity IC50. How it is done: (§1) MDA MB-231 and MCF-7 (ATCCR HTB-26 and ATCCR HTB-22) breast cancer cells, originated from Pasteur Institute (IPI, Tehran, I.R. Iran), were cultured in RPMI1640 with streptomycin, penicillin, and fetal bovine serum (FBS) (100 µg/mL, 100 units/mL, 10%) with criteria of 5% carbon dioxide, 37 °C, and 95% humidity for a few days. Mouse normal fibroblast cell line (NCTC clone 929 from the same institute) was cultured in DMEM+10% FBS+ 1% penicillin/streptomycin in the same conditions. After incubation, cells were seeded at 7 × 10^3 cells in each well of ninety-six well plates for 12 h. Then, the media were changed, and sample compounds in concentrations of 1, 10, and 100 µM were added. For L929 normal cell line, samples were added in the concentrations of 1, 10, 100, 250, and 500 µM. Placebo with the same amount of DMSO in each concentration used for compounds and Taxol in concentrations of 0.001, 0.01, 0.1, 1, and 10 µM were added as the negative and positive controls. After 24 h incubation time, the reduction agent (MTT, 5 mg/mL, 20 µL) was added to each well and incubated for 4 h to let the MTT be reduced into formazan derivative by the mitochondria of survived cells. The media was then changed with DMSO (200 µL) to solubilize the insoluble formazan crystals, and the absorbance was read by a Synergy ELISA reader (BioTek Instruments, Winooski, VT, USA) at 570 nm.
(In general: Formazan colour is commonly taken as a measure of viable cells.)

For data set [3], the system named is MDA-MB-231 (ATCCR HTB-26) breast cancer cells. The data set can be described thus: MTT viability assay, MDA-MB-231 breast cancer cells. The data set is classed as cell-based. The note with it: for IC50: Homo sapiens, MDA-MB-231, MTT, 24 h incubation, mean ± SD (n = 3), read-out: Cytotoxic activity IC50; for Cytotoxicity against MDA-MB-231 compared to MCF-7: comparison of MTT test results, MDA-MB-231 vs MCF-7. The protocol:
as §1

Data set [4] deals with MCF-7 (ATCCR HTB-22) breast cancer cells. The data set can be described thus: MTT viability assay, MCF-7 breast cancer cells. The class given is cell-based. The note with it: for IC50: Homo sapiens, MCF7, MCF-7, MTT, 24 h incubation, mean ± SD (n = 3), read-out: Cytotoxic activity IC50; for Potency in MTT assay: MCF-7, 100 μM concentration, P values less than 0.0001. The protocol: as §1

Data set [5] concerns human lung (A549) tumor cells. More on the design: method as in PMID 30200407. Particulars: cited from earlier work.
In data set [6] the test system is human colon (Caco-2) tumor cells. Details: method as in PMID 30200407. Particulars: cited from earlier work.

For the molecule `CCC(=O)O[C@@H]1[C@@H]2[C@@H](OC(=O)c3ccccc3)[C@@]3(COC(C)=O)[C@@H]([C@@H]4[C@H](C[C@H]3OC(C)=O)C4(C)C)[C@](C)(OC(C)=O)C(=O)[C@@]2(O)C[C@@H]1C` [Compound 2, 3β-O-propanoyl-5α-O-benzoyl-7α,13β, 17α -O-triacetyl-14-oxopremyrsinane], the “Lipid-lowering activities and TG inhibitory effects” value in data set [1] was “acceptable”. In addition, the IC50 at 24 h in data set [2] was 553 ± 26.7 µM. The IC50 in data set [3] is 22.2 ± 4 µM; in data set [4] it was 27.8 ± 2.5 µM. The “Potency in MTT assay” value in data set [4] is “reasonably potent”.

`CCC(=O)O[C@@H]1[C@@H]2[C@@H](OC(=O)C(C)C)[C@@]3(COC(C)=O)[C@@H]([C@@H]4[C@H](C[C@H]3OC(C)=O)C4(C)C)[C@](C)(OC(C)=O)C(=O)[C@@]2(O)C[C@@H]1C` [Compound 3, 3β-O-propanoyl-5α-O-isobutanoyl-7α,13β, 17α -O-triacetyl-14-oxopremyrsinane]: the “Cytotoxicity against proliferation” value in data set [5] and in data set [6] was “moderate cytotoxicity” each time. Besides, the IC50 at 24 h in data set [2] worked out at 433 ± 22.1 µM. Moreover, the IC50 was 24.5 ± 3.8 µM in data set [3] and 62.6 ± 4.9 µM in data set [4]. Besides, the “Cytotoxicity against MDA-MB-231 compared to MCF-7” value in data set [3] is “almost three times higher cytotoxicity”.

For `CCC(=O)O[C@@H]1[C@@H]2[C@@H](OC(=O)C(C)CC)[C@@]3(COC(=O)c4cccnc4)[C@@H]([C@@H]4[C@H](C[C@H]3OC(C)=O)C4(C)C)[C@](C)(OC(C)=O)C(=O)[C@@]2(O)C[C@@H]1C` (stereo partly drawn) [Compound 1, 3β-O-propanoyl-5α-O-methylbutanoyl-7α,13β-O-diacetyl-17α-O-nicotinoyl-14-oxopremyrsinane], the “Cytotoxicity against proliferation” value in data set [5] and in data set [6] was “moderate cytotoxicity” throughout. Further, the IC50 at 24 h in data set [2] is 528 ± 23.8 µM. For the same molecule, the IC50 was determined as 10.8 ± 2.1 µM in data set [3] and 22.2 ± 2.4 µM in data set [4]. Moreover, the “Potency in MTT assay” value in data set [4] is on record as “reasonably potent”.

On to `CCC(=O)OC1C2C(OC(C)=O)C34COC(C)(C(OC(=O)c5ccccc5)C2(OC(C)=O)CC1(C)OC(C)=O)C3C(C(C)(C)OC(C)=O)C=CC4OC(C)=O` (centres unmarked) [Compound 5, 2,5,7,10,15-O-pentaacetyl-3-O-propanoyl-14-O-benzoyl-13,17-epoxy-8-myrsinene], for which the IC50 at 24 h in data set [2] worked out at 596 ± 23.5 µM. Besides, the IC50 stood at 33.7 ± 4.6 µM in data set [3] and 126 ± 4.2 µM in data set [4].

`CCC(=O)O[C@@H]1[C@@H]2[C@@H](OC(=O)C(C)C)[C@@]3(COC(=O)c4cccnc4)[C@@H]([C@@H]4[C@H](C[C@H]3OC(C)=O)C4(C)C)[C@](C)(OC(C)=O)C(=O)[C@@]2(O)C[C@@H]1C` [Compound 4, 3β-O-propanoyl-5α-O-isobutanoyl-7α,13β-O-diacetyl-17α-O-nicotinoyl-14-oxopremyrsinane]: the “Cytotoxicity against proliferation” value in data set [5] and in data set [6] was “moderate cytotoxicity” throughout. The IC50 at 24 h in data set [2] was 716 ± 26.9 µM. Besides, the IC50 worked out at 27.3 ± 3.2 µM in data set [3] and 74.4 ± 5.2 µM in data set [4]. Moreover, in data set [3], the “Cytotoxicity against MDA-MB-231 compared to MCF-7” value is “almost three times higher cytotoxicity”.
